Measured values: publication PMC4148164 (Journal of Medicinal Chemistry, 2014)

Key:
[1] = in biological milieu; estimated; cited from earlier work
[2] = test system: precontracted bovine coronary artery rings; experiment: Vasorelaxation of U46619-precontracted bovine coronary artery rings; assay type: cell-based; conditions: for fold more potent than 14,15-EET as vasorelaxant (ED50): ratio of ED50 versus 14,15-EET

CCCCCC1OC1C/C=C\C/C=C\C/C=C\CCCC(=O)O (stereo not shown) [14,15-EET, 14,15-epoxyeicosa-5(Z),8(Z),11(Z)-trienoic acid]
half-life [1]: no more than seconds to minutes

CCCCCNC(=O)NCCCC/C=C\CCCCCNS(=O)(=O)c1ccccc1 [Compd 9]
improvement in the EC50 by a factor (versus parent free acid) ([2]; vasorelaxation EC50 compared with parent free acid): ~2

CCCCCNC(=O)NCCCC/C=C\CCCCCCc1nnn[nH]1 [Compd 19, 1-(12-(1H-Tetrazol-5-yl)dodec-5(Z)-en-1-yl)-3-pentylurea]
fold more potent than 14,15-EET as vasorelaxant (ED50) [2]: 12 fold

N1-Butyl-N2-(12-(2-oxido-3H-1,2,3,5-oxathiadiazol-4-yl)dodec-5(Z)-en-1-yl)oxalamide [Compd 25]
fold more potent than 14,15-EET as vasorelaxant (ED50) [2]: 6 fold
